In patent US20110021530A1, “PYRIDAZINE DERIVATIVES AND THEIR USE AS THERAPEUTIC AGENTS IN THE TREATMENT OF SKIN DISORDERS” (XENON PHARMACEUTICALS INC., priority 2008, published 2011):

Key:
[1] = tested on: HEPG2; assay: HEPG2 IC50; type: cell-based; conditions: Homo sapiens
[2] = target: T1, stearoyl-CoA desaturase (SCD) (Mus musculus, UniProt P13516); assay: HTS microsomal assay of stearoyl-CoA desaturase inhibition using mouse liver microsomes; type: biochemical; conditions: % SCD enzyme activity remaining at 10 μM test compound
T1 construct: Reactions are started by adding 2 mg of microsomal protein; from tissue; host or cells: liver microsomes of male ICR mice on a high-carbohydrate, low fat diet
T1 sequence (P13516 1-355): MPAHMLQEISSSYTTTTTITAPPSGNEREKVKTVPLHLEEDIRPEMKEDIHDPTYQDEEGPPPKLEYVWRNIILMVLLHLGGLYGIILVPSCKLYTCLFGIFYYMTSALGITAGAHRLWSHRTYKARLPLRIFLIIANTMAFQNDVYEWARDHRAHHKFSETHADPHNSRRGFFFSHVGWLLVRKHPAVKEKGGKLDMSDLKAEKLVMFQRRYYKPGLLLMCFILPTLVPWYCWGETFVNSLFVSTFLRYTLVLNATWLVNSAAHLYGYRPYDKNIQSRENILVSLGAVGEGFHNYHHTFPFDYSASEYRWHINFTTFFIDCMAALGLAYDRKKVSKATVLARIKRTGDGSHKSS
Description: The absence of mitochondrial contamination is enzymatically assessed.
The compounds are analyzed with an HTS microsomal assay.

[3] = target: T2, SCD (Mus musculus, UniProt P13516); assay: Mouse SCD IC50 determination for compounds active in the HTS assay; type: biochemical
T2 sequence (P13516 1-355): T1 sequence (P13516 1-355)
Description: The compounds are analyzed with an HTS microsomal assay. The activities are defined in terms of % SCD enzyme activity remaining at the selected concentration (e.g., 10 μM) of the test compounds.

| IC50 [1] [nM] | Mouse microsome SCD activity % remaining @ 10 μM [2] [%] | IC50 [3] [nM] | Structure (SMILES) |
| --- | --- | --- | --- |
| 5520 | 49 | 8690 | O=C(NCC1CC1)c1ccc(N2CCN(C(=O)c3ccccc3C(F)(F)F)CC2)nn1 [6-[4-(2-TRIFLUOROMETHYLBENZOYL)PIPERAZIN-1-YL]PYRIDAZINE-3-CARBOXYLIC ACID CYCLOPROPYLMETHYLAMIDE] |
| 240 | 8 | 80 | CC(C)CCNC(=O)c1ccc(N2CCN(C(=O)c3cnccc3C(F)(F)F)CC2)nn1 [6-[4-(4-TRIFLUOROMETHYLPYRIDINE-3-CARBONYL)PIPERAZIN-1-YL]PYRIDAZINE-3-CARBOXYLIC ACID (3-METHYLBUTYL)AMIDE] |
|  | 94 |  | O=C(NCCC1CC1)c1ccc(N2CCN(C(=O)c3ccccn3)CC2)nn1 [6-[4-(PYRIDINE-2-CARBONYL)PIPERAZIN-1-YL]PYRIDAZINE-3-CARBOXYLIC ACID (2-CYCLOPROPYLETHYL)AMIDE] |
|  | 22 |  | O=C(NCCC1CC1)c1ccc(N2CCN(C(=O)C3CCCCC3)CC2)nn1 [6-(4-CYCLOHEXANECARBONYLPIPERAZIN-1-YL)PYRIDAZINE-3-CARBOXYLIC ACID (2-CYCLOPROPYLETHYL)AMIDE] |
|  | 36 |  | CCC(CC)C(=O)N1CCN(c2ccc(C(=O)NCCC3CC3)nn2)CC1 [6-[4-(2-ETHYLBUTYRYL)PIPERAZIN-1-YL]PYRIDAZINE-3-CARBOXYLIC ACID (2-CYCLOPROPYLETHYL)AMIDE] |
|  | 0 |  | O=C(NCCc1ccccc1)c1ccc(N2CCN(C(=O)c3ccccc3C(F)(F)F)CC2)nn1 [6-[4-(2-Trifluoromethylbenzoyl)piperazin-1-yl]pyridazine-3-carboxylic acid phenethylamide] |
|  | 24 |  | CC(c1ccccc1C(F)(F)F)N1CCN(c2ccc(C(=O)NCCC3CC3)nn2)CC1.Cl (centres unmarked) [6-{4-[1-(2-TRIFLUOROMETHYLPHENYL)ETHYL]PIPERAZIN-1-YL}-PYRIDAZINE-3-CARBOXYLIC ACID (2-CYCLOPROPYLETHYL)AMIDE HYDROCHLORIDE] |
|  | 10 | 590 | O=C(NCCC1CC1)c1ccc(N2CCN(C(=O)Cc3ccccc3C(F)(F)F)CC2)nn1 [6-{4-[2-(2-TRIFLUOROMETHYLPHENYL)ACETYL]PIPERAZIN-1-YL}PYRIDAZINE-3-CARBOXYLIC ACID (2-CYCLOPROPYLETHYL)AMIDE] |
|  | 12 | 90 | O=C(NCCC1CC1)c1ccc(N2CCN(C(=O)c3cc(Cl)ccc3C(F)(F)F)CC2)nn1 [6-[4-(5-CHLORO-2-TRIFLUOROMETHYLBENZOYL)PIPERAZIN-1-YL]PYRIDAZINE-3-CARBOXYLIC ACID (2-CYCLOPROPYLETHYL)AMIDE] |
|  | 37 |  | CC(C)(C)OC(=O)N1CCN(c2ccc(C(=O)NCCC3CC3)nn2)CC1 [4-[6-(2-CYCLOPROPYLETHYLCARBAMOYL)PYRIDAZIN-3-YL]PIPERAZINE-1-CARBOXYLIC ACID T-BUTYL ESTER] |
|  | 69 |  | COC(=O)C(CC(C)C)NC(=O)c1ccc(N2CCN(C(=O)c3ccccc3C(F)(F)F)CC2)nn1 (centres unmarked) [4-METHYL-2-({6-[4-(2-TRIFLUOROMETHYLBENZOYL)PIPERAZIN-1-YL]-PYRIDAZINE-3-CARBONYL}AMINO)PENTANOIC ACID METHYL ESTER] |
|  | 73 |  | O=C(NCCC1CC1)c1ccc(N2CCN(C(=O)C3(O)CC3)CC2)nn1 [6-[4-(1-HYDROXYCYCLOPROPANECARBONYL)PIPERAZIN-1-YL]PYRIDAZINE-3-CARBOXYLIC ACID (2-CYCLOPROPYLETHYL)AMIDE] |
|  | 46 |  | CC(=O)Oc1ccccc1C(=O)N1CCN(c2ccc(C(=O)NCCC3CC3)nn2)CC1 [ACETIC ACID 2-{4-[6-(2-CYCLOPROPYLETHYLCARBAMOYL)PYRIDAZIN-3-YL]-PIPERAZINE-1-CARBONYL}PHENYL ESTER] |

More lines, now with the values behind:

| Structure (SMILES) | IC50 [1] [nM] | Mouse microsome SCD activity % remaining @ 10 μM [2] [%] | IC50 [3] [nM] |
| --- | --- | --- | --- |
| CC(NC(=O)Nc1ccc(N2CCN(C(=O)c3ccccc3C(F)(F)F)CC2)nn1)c1ccc(F)cc1 (centres unmarked) [1-[1-(4-Fluorophenyl)ethyl]-3-{6-[4-(2-trifluoromethylbenzoyl)piperazin-1-yl]pyridazin-3-yl}urea] |  | 45 |  |
| CC(C)CCNC(=O)c1ccc(N2CCN(C(=O)CC(C)C(F)(F)F)CC2)nn1 (centres unmarked) [6-[4-(4,4,4-TRIFLUORO-3-METHYLBUTYRYL)PIPERAZIN-1-YL]PYRIDAZINE-3-CARBOXYLIC ACID (3-METHYLBUTYL)AMIDE] | 2530 | 11 |  |
| CC(C)CCNC(=O)c1ccc(N2CCN(C(=O)CCC(F)(F)F)CC2)nn1 [6-[4-(4,4,4-TRIFLUOROBUTYRYL)PIPERAZIN-1-YL]PYRIDAZINE-3-CARBOXYLIC ACID (3-METHYLBUTYL)AMIDE] |  | 42 |  |
| O=C(Nc1ccc(F)cc1)Nc1ccc(N2CCN(C(=O)c3ccccc3C(F)(F)F)CC2)nn1 [1-(4-FLUOROPHENYL)-3-{6-[4-(2-TRIFLUOROMETHYLBENZOYL)PIPERAZIN-1-YL]-PYRIDAZIN-3-YL}UREA] |  | 82 |  |
| CC(C)CCNC(=O)c1ccc(N2CCN(C(=O)C3(C(F)(F)F)CC3)CC2)nn1 [6-[4-(1-TRIFLUOROMETHYLCYCLOPROPANECARBONYL)PIPERAZIN-1-YL]-PYRIDAZINE-3-CARBOXYLIC ACID (3-METHYLBUTYL)AMIDE] |  | 26 |  |
| CCCCCNC(=O)Nc1ccc(N2CCN(C(=O)c3ccccc3C(F)(F)F)CC2)nn1 [1-PENTYL-3-{6-[4-(2-TRIFLUOROMETHYLBENZOYL)PIPERAZIN-1-YL]PYRIDAZIN-3-YL}UREA] | 40 | 6 | 10 |
| CC(C)CCNC(=O)c1ccc(N2CCN(C(=O)C(C)CC(F)(F)F)CC2)nn1 (centres unmarked) [6-[4-(4,4,4-TRIFLUORO-2-METHYLBUTYRYL)PIPERAZIN-1-YL]PYRIDAZINE-3-CARBOXYLIC ACID (3-METHYLBUTYL)AMIDE] |  | 19 |  |
| CC(C)CCNC(=O)c1ccc(N2CCN(C(=O)c3nnn(Cc4ccccc4)c3C(F)(F)F)CC2)nn1 [6-[4-(1-BENZYL-5-TRIFLUOROMETHYL-1H-[1,2,3]TRIAZOLE-4-CARBONYL)-PIPERAZIN-1-YL]PYRIDAZINE-3-CARBOXYLIC ACID (3-METHYLBUTYL)AMIDE] |  | 61 |  |
| CC(C)CCNC(=O)c1ccc(N2CCN(C(=O)c3c(C(F)(F)F)nnn3Cc3ccccc3)CC2)nn1 [6-[4-(3-BENZYL-5-TRIFLUOROMETHYL-3H-[1,2,3]TRIAZOLE-4-CARBONYL)PIPERAZIN-1-YL]PYRIDAZINE-3-CARBOXYLIC ACID (3-METHYLBUTYL)AMIDE] |  | 61 |  |
| CC(C)CCNC(=O)c1ccc(N2CCN(C(=O)OC(C)(C)C)CC2)nn1 [4-[6-(3-METHYLBUTYLCARBAMOYL)PYRIDAZIN-3-YL]PIPERAZINE-1-CARBOXYLIC ACID T-BUTYL ESTER] | 1450 | 11 |  |
| CC(C)CCNC(=O)c1ccc(N2CCN(C(=O)N3CCN(C)CC3)CC2)nn1 [6-[4-(4-METHYLPIPERAZINE-1-CARBONYL)PIPERAZIN-1-YL]PYRIDAZINE-3-CARBOXYLIC ACID (3-METHYLBUTYL)AMIDE] |  | 29 |  |
| O=C(Nc1ccc(N2CCN(C(=O)c3ccccc3C(F)(F)F)CC2)nn1)Nc1ccccc1F [1-(2-FLUOROPHENYL)-3-{6-[4-(2-TRIFLUOROMETHYLBENZOYL)PIPERAZIN-1-YL]-PYRIDAZIN-3-YL}UREA] |  | 73 |  |
